The conditions of data set [1]: following a single oral dose; cited from earlier work.
A short description of data set [2]: Solubilization capacity of microemulsion / concentrate for Carbamazepine. To be noted: 50 wt % aqueous phase (water:PG 1:1), dilution line 7:3, D-limonene:ethanol 1:1, FIG. 2. The format is physicochemical.
Description: When solubilizing a drug in a microemulsion system, the solubilization capacity should be characterized. […] For the 7:3 dilution line (FIG. 2), the 5 gr oil phase concentrate comprises 0.75 gr of D-limonene, 0.75 gr EtOH (each being 15 wt %), and 3.5 gr Tween 60 (70 wt %). The 5 gr oil concentrate is then diluted in an aqueous phase of water:propylene glycol (1:1). For the 8:2 dilution line (FIG. 3) the 5 gr oil phase concentrate comprises 0.5 gr of D-limonene, 0.5 gr EtOH (each being 10 wt %), and 4 gr Tween 60 (80 wt %). The 5 gr oil concentrate is then diluted in an aqueous phase of water:propylene glycol (1:1). For the 9:1 dilution line (FIG. 4) the 5 gr oil phase concentrate comprises 0.25 gr of D-limonene, 0.25 gr EtOH (each being 5 wt %), and 4 gr Tween 60 (90 wt %). The 5 gr oil concentrate is then diluted in an aqueous phase of water:propylene glycol (1:1).
Preparations of the microemulsions and microemulsion concentrate were done in the following manner. The surfactant and the oil phase were mixed at the appropriate ratio, 7:3, 8:2 and 9:1 respectively, to form the concentrate. The solubilization of the drug in the concentrate was determined by solubilizing it to form clear solutions, until the maximal amount was reached. […]

Each structure is given as a SMILES string.

On to `NC(=O)N1c2ccccc2C=Cc2ccccc21` [Carbamazepine, 5H-Dibenz(b,f)azepine-5-carboxamide], for which the “elimination half-life of unchanged Carbamazepine in the plasma” value in data set [1] is “approximately 36 hours”. Besides, in data set [2], the “solubilization capacity of microemulsion (solubilized Carbamazepine)” value was 3.76%.

The values are drawn from patent US20100143462A1, “NEW CARBAMAZEPHINE FORMULATIONS HAVING INPROVED SOLUBILITY” (NUTRALEASE LTD., priority 2004, published 2010).
